# In patent US8080546B2, “Pyrazolo-pyridinone derivatives and methods of use” (Amgen Inc., priority 2007, dated 2011):
# Tests used:
# IL-1 = assay: LPS induced IL-1 cell based assay (LPS-activated monocytes); settings: Homo sapiens, Monocyte
# Procedure: Lipopolysaccharide-Activated Monocyte TNF Production Assay
# Test compounds were evaluated in vitro for the ability to inhibit the production of TNF by monocytes activated with bacterial lipopolysaccharide (LPS). Fresh residual source leukocytes (a byproduct of plateletpheresis) were obtained from a local blood bank, and peripheral blood mononuclear cells (PBMCs) were isolated by density gradient centrifugation on Ficol-Paque Plus (Pharmacia). PBMCs were suspended at 2×10^6/mL in DMEM supplemented to contain 2% FCS, 10 mM, 0.3 mg/mL […], 100 U/mL penicillin G and […] streptomycin sulfate (complete media). Cells were plated into Falcon flat bottom, 96 well culture plates (200 μL/well) and cultured overnight at 37° C. and 6% CO2. Non-adherent cells were removed by washing with 200 μl/well of fresh medium. Wells containing adherent cells (˜70% monocytes) were replenished with 100 μL of fresh medium.
# Preparation of Test Compound Stock Solutions
# Test compounds were dissolved in […]. Compound stock solutions were prepared to an initial concentration of […]. Stocks were diluted initially to 20-200 μM in complete media. Nine two-fold serial dilutions of each compound were then prepared in complete medium.
# Treatment of Cells with Test Compounds and Activation of TNF Production with Lipopolysaccharide
# One hundred microliters of each test compound dilution were added to microtiter wells containing adherent monocytes and 100 μL complete medium. Monocytes were cultured with test compounds for 60 min at which time 25 μL of complete medium containing 30 ng/mL lipopolysaccharide from E. coli K532 were added to each well. Cells were cultured an additional 4 hrs. Culture supernatants were then removed and TNF presence in the supernatants was quantified using an ELISA. […]
# Standard curve data were fit to a second order polynomial and unknown TNF-α concentrations determined from their OD by solving this equation for concentration. TNF concentrations were then plotted vs. test compound concentration using a second order polynomial. This equation was then used to calculate the concentration of test compounds causing a 50% reduction in TNF production.
# Compounds of the invention can also be shown to inhibit LPS-induced release of IL-1β, IL-6 and/or IL-8 from monocytes by measuring concentrations of IL-1β, IL-6 and/or IL-8 by methods well known to those skilled in the art. […] Thus, the compounds of the invention may lower elevated levels of TNF-α, IL-1, IL-6, and IL-8 levels. Reducing elevated levels of these inflammatory cytokines to basal levels or below is favorable in controlling, slowing progression, and alleviating many disease states.
# p38 = p38 (Homo sapiens, UniProt Q16539); assay: p38 in-vitro HTRF enzyme assay; type: biochemical; settings: recombinant human enzyme; range symbols; read-out: p38 enyme HTRF assay IC50
# Procedure: p38 In-Vitro HTRF Enzyme Assay
# The compounds of the invention can be tested for their respective affinities for the p38 protein using a conventional p38 in-vitro enzyme activity assay. For example, a P38-alpha HTRF assay may be used to measure the protein's in-vitro phosphorylation activity, and the data analyzed using time resolved fluorimetry techniques (FRET). A p38 HTRF assay is as follows. The kinase reaction buffer for p38α, p38β, p38δ and p38γ HTRF assays consists of 50 mM Tris-pH 7.5, 5 mM MgCl2, 0.1 mg/mL BSA, 100 μM Na3VO4 and 0.5 mM DTT. The HTRF detection buffer contains 100 mM HEPES-pH 7.5, 100 mM NaCl, 0.1% BSA, 0.05% Tween-20, and 10 mM EDTA. Each compound was dissolved in 100% DMSO and serially diluted (3 fold, 10 point) in a polypropylene 96-well microtiter plate (drug plate). The final starting concentration of the compound in the p38α and p38β enzymatic assays was about 1 μM. The final starting concentration of each compound in the p38δ and p38γ enzymatic assays was about 10 μM. The p38α, p38β, p38δ and p38γ kinase reactions were carried out in a polypropylene 96-well black round bottom assay plate in total volume of 30 μL kinase reaction buffer. Appropriate concentration of purified and activated enzyme (recombinant human) was mixed with indicated concentration of ATP and 100 nM GST-ATF2-Avitag, in the presence or absence (HI control) of each compound. In the absence of enzyme, the background was measured as LO control. HI controls and LO controls contained only DMSO. The reaction was allowed to incubate for 1 hour at RT. […] After 60 minutes incubation at room temperature, the assay plate was read in a Discovery Plate Reader. […] The resulting data was analyzed by taking the proportion of substrate phosphorylated in the kinase reaction in the presence of each individual compound and comparing it with that phosphorylated in the presence of DMSO vehicle alone (HI control). The data was calculated using the formula: % control (POC)=(compound−average LO)/(average HI−average LO)*100. […] All results were expressed as the mean±the standard error of the mean. Data acquisition and non-linear regression algorithms were performed using Activity Base v5.2 and XLfit software v4.1 respectively. Additional assay information may be obtained in Park Y W, Cummings R T, Wu L, et al. Homogeneous Proximity Tyrosine Kinase Assays Scintillation Proximity Assay versus Homogeneous Time-Resolved Fluorescence. Analytical Biochemistry.
# THP1 cells = assay: Lipopolysaccharide-activated THP1 cell TNF production assay (THP1 cell based); settings: Homo sapiens, THP-1, LPS-induced TNF-α
# Procedure: Lipopolysaccharide-Activated THP1 Cell TNF Production Assay
# THP1 cells are resuspended in fresh THP1 media (RPMI 1640, 10% heat-inactivated FBS, 1XPGS, 1XNEAA, plus 30 μM PME) at a concentration of 1E6/mL. One hundred microliters of cells per well are plated in a polystyrene 96-well tissue culture. One microgram per mL of bacterial LPS is prepared in THP1 media and is transferred to the wells. Test compounds are dissolved in 100% DMSO and are serially diluted 3-fold in a polypropylene 96-well microtiter plate (drug plate). HI control and LO control wells contain only DMSO. One microliter of test compound from the drug plate followed by 10 μL of LPS are transferred to the cell plate. The treated cells are induced to synthesize and secrete TNF-α at 37° C. for 3 h. Forty microliters of conditioned media are transferred to a 96-well polypropylene plate containing 110 μL of ECL buffer (50 mM Tris-HCl pH 8.0, 100 mM NaCl, 0.05% Tween 20, 0.05% NaN3 and 1% FBS) supplemented with 0.44 nM MAB610 monoclonal Ab (R&D Systems), 0.34 nM ruthenylated AF210NA polyclonal Ab (R&D Systems) and 44 μg/mL sheep anti-mouse M280 Dynabeads (Dynal). After a 2 h incubation at room temperature with shaking, the reaction is read on the ECL M8 Instrument (IGEN Inc.). A low voltage is applied to the ruthenylated TNF-α immune complexes, which in the presence of TPA (the active component in Origlo), results in a cyclical redox reaction generating light at […]. The amount of secreted TNF-α in the presence of compound compared with that in the presence of DMSO vehicle alone (HI control) is calculated using the formula: % control (POC)=(cpd−average LO)/(average HI−average LO)*100. Data (consisting of POC and inhibitor concentration in μM) is fitted to a 4-parameter equation (y=A+((B−A)/(1+((x/C)^D))), where A is the minimum y (POC) value, B is the maximum y (POC), C is the x (cpd concentration) at the point of inflection and D is the slope factor) using a Levenburg-Marquardt non-linear regression algorithm.
# Chain of p38 (Q16539 whole entry): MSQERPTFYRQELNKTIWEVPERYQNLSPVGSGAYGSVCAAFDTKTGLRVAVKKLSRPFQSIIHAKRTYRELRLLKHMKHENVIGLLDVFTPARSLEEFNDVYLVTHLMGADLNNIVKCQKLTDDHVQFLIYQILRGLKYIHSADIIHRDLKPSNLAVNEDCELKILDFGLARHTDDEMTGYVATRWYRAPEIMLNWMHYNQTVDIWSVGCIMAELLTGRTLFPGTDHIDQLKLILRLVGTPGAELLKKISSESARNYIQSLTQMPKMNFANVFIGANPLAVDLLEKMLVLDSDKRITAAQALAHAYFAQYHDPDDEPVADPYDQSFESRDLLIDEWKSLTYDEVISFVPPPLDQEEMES
SMILES,IC50 (IL-1; range symbols),IC50 (p38),IC50 (THP1 cells; range symbols),IC50 (IL-1; actual values),IC50 (THP1 cells; actual values)
"Cc1ccc(C(=O)NC2CC2)cc1Nc1cc(=O)n(C)c2c1cnn2-c1cccc(F)c1 [Example 4, N-cyclopropyl-3-((1-(3-fluorophenyl)-7-methyl-6-oxo-6,7-dihydro-1H-pyrazolo[3,4-b]pyridin-4-yl)amino)-4-methylbenzamide]",< 25 nM,< 25 nM,< 25 nM,–,–
"Cc1ccc(C(=O)NC2CC2)cc1Oc1cc(=O)n(C)c2c1cnn2-c1cccc(F)c1 [Example 5, N-cyclopropyl-3-((1-(3-fluorophenyl)-7-methyl-6-oxo-6,7-dihydro-1H-pyrazolo[3,4-b]pyridin-4-yl)oxy)-4-methylbenzamide]",100 to 249 nM,< 25 nM,< 25 nM,–,–
"Cn1c(=O)cc(Nc2cc(C(=O)NC3CC3)ccc2F)c2cnn(-c3ccc(F)cc3F)c21 [Example 7, N-cyclopropyl-3-((1-(2,4-difluorophenyl)-7-methyl-6-oxo-6,7-dihydro-1H-pyrazolo[3,4-b]pyridin-4-yl)amino)-4-fluorobenzamide]",25 to 99 nM,< 25 nM,< 25 nM,–,–
"Cc1ccncc1Nc1cc(=O)n(C)c2c1cnn2-c1cc(F)ccc1F [Example 8, 1-(2,5-difluorophenyl)-7-methyl-4-((4-methyl-3-pyridinyl)amino)-1,7-dihydro-6H-pyrazolo[3,4-b]pyridin-6-one]",250 to 999 nM,1000 to 5000 nM,100 to 249 nM,–,–
"Cn1c(=O)cc(Nc2ccc(F)cc2F)c2cnn(-c3ccc(F)cc3F)c21 [Example 9, 1-(2,4-difluorophenyl)-4-((2,4-difluorophenyl)amino)-7-methyl-1,7-dihydro-6H-pyrazolo[3,4-b]pyridin-6-one]",1000 to 5000 nM,1000 to 5000 nM,250 to 999 nM,–,–
"Cn1c(=O)cc(Nc2ccc(F)cc2)c2cnn(-c3c(F)cccc3F)c21 [Example 10, 1-(2,6-difluorophenyl)-4-((4-fluorophenyl)amino)-7-methyl-1,7-dihydro-6H-pyrazolo[3,4-b]pyridin-6-one]",1000 to 5000 nM,1000 to 5000 nM,250 to 999 nM,–,–
"Cn1c(=O)cc(Nc2cc(C(=O)NC3CC3)ccc2Cl)c2cnn(-c3c(F)cccc3F)c21 [Example 11, 4-chloro-N-cyclopropyl-3-((1-(2,6-difluorophenyl)-7-methyl-6-oxo-6,7-dihydro-1H-pyrazolo[3,4-b]pyridin-4-yl)amino)benzamide]",< 25 nM,< 25 nM,< 25 nM,–,–
"Cn1c(=O)cc(Nc2cc(C(=O)NC3CC3)ccc2Cl)c2cnn(-c3cc(F)ccc3F)c21 [Example 12, 4-chloro-N-cyclopropyl-3-((1-(2,5-difluorophenyl)-7-methyl-6-oxo-6,7-dihydro-1H-pyrazolo[3,4-b]pyridin-4-yl)amino)benzamide]",< 25 nM,< 25 nM,< 25 nM,–,–
"Cn1c(=O)cc(Nc2cc(C(=O)NC3CC3)ccc2Cl)c2cnn(-c3ccc(F)cc3F)c21 [Example 13, 4-chloro-N-cyclopropyl-3-((1-(2,4-difluorophenyl)-7-methyl-6-oxo-6,7-dihydro-1H-pyrazolo[3,4-b]pyridin-4-yl)amino)benzamide]",< 25 nM,–,< 25 nM,–,–
"Cc1ccc(C(=O)NC2CC2)cc1Nc1cc(=O)n(C)c2c1cnn2-c1ccc(F)cc1F [Example 14, N-cyclopropyl-3-((1-(2,4-difluorophenyl)-7-methyl-6-oxo-6,7-dihydro-1H-pyrazolo[3,4-b]pyridin-4-yl)amino)-4-methylbenzamide]",< 25 nM,–,< 25 nM,–,–
"Cc1ccc(C(=O)NC2CC2)cc1Nc1cc(=O)n(C)c2c1cnn2-c1c(F)cccc1F [Example 15, N-cyclopropyl-3-((1-(2,6-difluorophenyl)-7-methyl-6-oxo-6,7-dihydro-1H-pyrazolo[3,4-b]pyridin-4-yl)amino)-4-methylbenzamide]",< 25 nM,< 25 nM,< 25 nM,–,–
"Cc1ccc(C(=O)NC2CC2)cc1Oc1cc(=O)n(C)c2c1cnn2-c1c(F)cccc1F [Example 16, N-cyclopropyl-3-((1-(2,6-difluorophenyl)-7-methyl-6-oxo-6,7-dihydro-1H-pyrazolo[3,4-b]pyridin-4-yl)oxy)-4-methylbenzamide]",25 to 99 nM,< 25 nM,< 25 nM,–,–
"Cc1ccc(C(=O)NC(C)(C)C)cc1Nc1cc(=O)n(C)c2c1cnn2-c1ccc(F)cc1F [Example 25, N-tert-butyl-3-((1-(2,4-difluorophenyl)-7-methyl-6-oxo-6,7-dihydro-1H-pyrazolo[3,4-b]pyridin-4-yl)amino)-4-methylbenzamide]",100 to 249 nM,–,25 to 99 nM,–,–
"Cn1c(=O)cc(Oc2cc(C(=O)NC3CC3)ccc2Cl)c2cnn(-c3cc(F)ccc3F)c21 [Example 26, 4-chloro-N-cyclopropyl-3-((1-(2,5-difluorophenyl)-7-methyl-6-oxo-6,7-dihydro-1H-pyrazolo[3,4-b]pyridin-4-yl)oxy)benzamide]",–,–,–,101 nM,8.2 nM
